Source: patent US20140157443A1, “METHODS AND COMPOSITIONS FOR DETECTING AND MODULATING A NOVEL MTOR COMPLEX” (ST. JUDE CHILDREN'S RESEARCH HOSPITAL, priority 2011, published 2014)
“Also recorded” adds a separate entry of the source.

Experiments:
[1] = tested on: TEL2-expressing primary Arf−/− mouse pre-B cells; experiment: mTOR inhibition: proliferation of TEL2-expressing pre-B cells; format: cell-based
Description: (§1) FIG. 5A provides a graph presenting cell density as a percent control of Karpas-299 cells. Logarithmically growing Karpas-299 cells were treated for three population doublings with increasing amounts (0.1, 0.3, 1, 3, 10, 30, 100, 300, 1000, 3000, 10,000 ng/ml) of Rapamycin, AZD-8055 or OSI-27. Cell densities were plotted as the percentage of cells treated with vehicle. FIG. 5B provides a graph presenting cell density as a percent control of mouse pre-B cells transduced with MSCV-IRES-GFP (vector) or MSCV-TEL2-IRES-GFP (TEL2) and treated with AZD-8055 or Rapamycin. Cell densities were plotted as the percentage of cells treated with vehicle. […] FIG. 5D provides immunoblots of the same Rapamycin-treated fractions of FIG. 5C probed for the presence of p-mTOR^Ser2448, p-AKT^Ser473, p-AKT^Thr308, p-P70S6K^Thr389, p-S6^Ser235/236, p-4E-BP1^Thr37/46 and for the autophagosome marker LC3B I/II.
(§2) Cells were plated in drug containing growth medium and followed for three population doublings.

[2] = tested on: mTOR signaling in Karpas-299 cells; experiment: Immunoblots of mTOR target phosphorylation, Ki-67 and LC3B in treated Karpas-299 cells; format: cell-based, human
Description: as §1
(§3) For western blot analysis, cells were lysed in 1× lysis buffer (Cell Signaling Technologies). For co-IP experiments, cells were lysed in CHAPS lysis buffer and xenografts in 1× cell signaling lysis buffer. Co-IP was performed with 2 μg antibody whilst rotating at 4° C.

[3] = tested on: mTOR signaling in TEL2-expressing Arf−/− mouse pre-B cells; experiment: Immunoblots of mTOR target phosphorylation, KI-67 and LC3B in AZD-8055-treated TEL2-expressing pre-B cells; format: cell-based
Description: (§4) FIG. 5A provides a graph presenting cell density as a percent control of Karpas-299 cells. Logarithmically growing Karpas-299 cells were treated for three population doublings with increasing amounts (0.1, 0.3, 1, 3, 10, 30, 100, 300, 1000, 3000, 10,000 ng/ml) of Rapamycin, AZD-8055 or OSI-27. Cell densities were plotted as the percentage of cells treated with vehicle. FIG. 5B provides a graph presenting cell density as a percent control of mouse pre-B cells transduced with MSCV-IRES-GFP (vector) or MSCV-TEL2-IRES-GFP (TEL2) and treated with AZD-8055 or Rapamycin. Cell densities were plotted as the percentage of cells treated with vehicle. FIG. 5C provides m-TOR IP/immunoblots of lysates of the Rapamycin-treated Karpas-299 cells probed for the presence of Rictor, mSIN1, mLST8 and TEL2. FIG. 5D provides immunoblots of the same Rapamycin-treated fractions of FIG. 5C probed for the presence of p-mTOR^Ser2448, p-AKT^Ser473, p-AKT^Thr308, p-P70S6K^Thr389, p-S6^Ser235/236, p-4E-BP1^Thr37/46 and for the autophagosome marker LC3B I/II.
At 100 ng/ml AZD-8055, the autophagy salvage pathway was activated as detected by the change in the relative amounts of the LC3BI/II proteins.
as §3

Karpas-299 cells = experiment: mTOR inhibition: proliferation of Karpas-299 cells over three population doublings; format: cell-based, human; conditions: 0.1 to 10,000 ng/ml
Description: FIG. 5A provides a graph presenting cell density as a percent control of Karpas-299 cells. […] Cell densities were plotted as the percentage of cells treated with vehicle. […] Cell densities were plotted as the percentage of cells treated with vehicle.
as §2

mTOR = molecular target: T1, mTOR (Homo sapiens, UniProt P42345); experiment: IP-kinase assay, mTOR IP (mTORC1+mTORC2+mTORC3) with recombinant 4E-BP1; format: biochemical; conditions: Karpas-299 mTOR IP, recombinant 4E-BP1, γ32P-ATP; FKBP12/Rapamycin 37 μg/ml/20 μM; OSI-27 10 μM
T1 construct: endogenous TEL2-expressing Karpas-299 cell lysates immunoprecipitated with mTOR (mTOR IP) or TEL2 (TEL2-IP) antibodies; endogenous in cells; host or cells: Karpas-299
Description: (§5) IgG indicates the immunoprecipitation with non-relevant IgG.
(§6) To determine the relative amounts of mTORC 1, 2 and 3, whole cell lysates of Karpas-299 cells were immunoprecipitated with non-relevant IgG, anti-mTOR, anti-TEL2, anti-Raptor, or anti-Rictor antibodies and the IPs were used for western blotting and in vitro kinase assays. […] For in vitro kinase assays, the IPs were incubated with recombinant 4E-BP1 or AKT in the presence of ATP.
(§7) Captured antibody-protein complexes were incubated with recombinant 4E-BP1 (Abcam) or AKT/PKB (Millipore) in the presence of (γ^32P-) ATP.

mTORC3 = molecular target: T2, mTORC3 (Homo sapiens, UniProt P42345); experiment: IP-kinase assay, TEL2 IP (mTORC3 alone) with recombinant 4E-BP1; format: biochemical; conditions: Karpas-299 TEL2 IP, recombinant 4E-BP1, γ32P-ATP; FKBP12/Rapamycin 37 μg/ml/20 μM; OSI-27 10 μM
T2 construct: endogenous TEL2-expressing Karpas-299 cell lysates immunoprecipitated with mTOR (mTOR IP) or TEL2 (TEL2-IP) antibodies; endogenous in cells; host or cells: Karpas-299
Description: as §5, §6, §7

[4] = tested on: vector-transduced Arf−/− pre-B cells; experiment: mTOR inhibition: proliferation of vector-transduced pre-B cells; format: cell-based, mouse
Description: as §4
To determine if mTORC3 is also insensitive to Rapamycin inhibition in vivo, Karpas-299 cells were treated with increasing amounts of drug for three population doublings. […] This was deduced from the steady relative intensities of LC3BI/II proteins at all Rapamycin concentrations (FIG. 5D). […]

SIN1 (human cell lines) = molecular target: T3, SIN1 (human cell lines) (human, UniProt Q9BPZ7 2-522, limits assumed); experiment: TEL2 IP / western blot, whole cell lysates of Karpas-299, K562 and OS-17 cells (FIG. 2B)
T3 construct: mTORC2 component; also called mSIN1
Description: as §3

[5] = molecular target: T4, Raptor (human cell lines) (human, UniProt Q8N122 1-1335); experiment: as above
T4 construct: mTORC1 component
Description: as §3

[6] = molecular target: T5, RUVBL2 (bacterially-expressed, purified recombinant) (UniProt Q9Y230 1-463, limits assumed); experiment: purified proteins co-incubated for 8 or 24 hours, TEL2 IP, western blot for RUVBL2 (FIG. 2C)
T5 construct: Used as a specificity control, a protein not part of mTORC3

[7] = molecular target: T6, Rictor (human cell lines) (human, UniProt Q6R327 1-1708); experiment: TEL2 IP / western blot of cytoplasmic, membrane and nuclear fractions of Karpas-299 cells (FIG. 3A)
T6 construct: mTORC2 component
Description: Nuclear, cytoplasmic and membrane fractions of Karpas-299 cells were subjected to IP-Western blotting to determine the cellular location of mTORC3.
as §3

[8] = molecular target: Rictor of mouse Arf-/- pre-B cells (mouse, UniProt Q6QI06 1-1708); experiment: TEL2 IP / western blot, whole cell lysates of mouse Arf-/- pre-B cells expressing TEL2 (FIG. 2A)
Description: as §3

[9] = molecular target: T7, SIN1 of mouse Arf-/- pre-B cells (mouse, UniProt Q8BKH7 2-522, limits assumed); experiment: as above
T7 construct: also called mSIN1
Description: as §3

T5 sequence (Q9Y230 whole entry): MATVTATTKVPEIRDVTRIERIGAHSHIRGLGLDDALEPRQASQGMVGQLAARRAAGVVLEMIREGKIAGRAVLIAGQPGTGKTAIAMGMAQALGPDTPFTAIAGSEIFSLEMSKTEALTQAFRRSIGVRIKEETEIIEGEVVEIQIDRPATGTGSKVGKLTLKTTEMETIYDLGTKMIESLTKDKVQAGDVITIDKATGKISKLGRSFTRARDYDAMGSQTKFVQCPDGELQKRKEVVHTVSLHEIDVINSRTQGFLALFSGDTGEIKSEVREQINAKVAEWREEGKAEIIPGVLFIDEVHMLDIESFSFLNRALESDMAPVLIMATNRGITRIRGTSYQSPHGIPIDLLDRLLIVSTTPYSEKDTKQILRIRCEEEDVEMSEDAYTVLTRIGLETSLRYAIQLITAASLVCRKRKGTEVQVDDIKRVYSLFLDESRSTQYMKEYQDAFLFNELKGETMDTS
T4 sequence (Q8N122 whole entry): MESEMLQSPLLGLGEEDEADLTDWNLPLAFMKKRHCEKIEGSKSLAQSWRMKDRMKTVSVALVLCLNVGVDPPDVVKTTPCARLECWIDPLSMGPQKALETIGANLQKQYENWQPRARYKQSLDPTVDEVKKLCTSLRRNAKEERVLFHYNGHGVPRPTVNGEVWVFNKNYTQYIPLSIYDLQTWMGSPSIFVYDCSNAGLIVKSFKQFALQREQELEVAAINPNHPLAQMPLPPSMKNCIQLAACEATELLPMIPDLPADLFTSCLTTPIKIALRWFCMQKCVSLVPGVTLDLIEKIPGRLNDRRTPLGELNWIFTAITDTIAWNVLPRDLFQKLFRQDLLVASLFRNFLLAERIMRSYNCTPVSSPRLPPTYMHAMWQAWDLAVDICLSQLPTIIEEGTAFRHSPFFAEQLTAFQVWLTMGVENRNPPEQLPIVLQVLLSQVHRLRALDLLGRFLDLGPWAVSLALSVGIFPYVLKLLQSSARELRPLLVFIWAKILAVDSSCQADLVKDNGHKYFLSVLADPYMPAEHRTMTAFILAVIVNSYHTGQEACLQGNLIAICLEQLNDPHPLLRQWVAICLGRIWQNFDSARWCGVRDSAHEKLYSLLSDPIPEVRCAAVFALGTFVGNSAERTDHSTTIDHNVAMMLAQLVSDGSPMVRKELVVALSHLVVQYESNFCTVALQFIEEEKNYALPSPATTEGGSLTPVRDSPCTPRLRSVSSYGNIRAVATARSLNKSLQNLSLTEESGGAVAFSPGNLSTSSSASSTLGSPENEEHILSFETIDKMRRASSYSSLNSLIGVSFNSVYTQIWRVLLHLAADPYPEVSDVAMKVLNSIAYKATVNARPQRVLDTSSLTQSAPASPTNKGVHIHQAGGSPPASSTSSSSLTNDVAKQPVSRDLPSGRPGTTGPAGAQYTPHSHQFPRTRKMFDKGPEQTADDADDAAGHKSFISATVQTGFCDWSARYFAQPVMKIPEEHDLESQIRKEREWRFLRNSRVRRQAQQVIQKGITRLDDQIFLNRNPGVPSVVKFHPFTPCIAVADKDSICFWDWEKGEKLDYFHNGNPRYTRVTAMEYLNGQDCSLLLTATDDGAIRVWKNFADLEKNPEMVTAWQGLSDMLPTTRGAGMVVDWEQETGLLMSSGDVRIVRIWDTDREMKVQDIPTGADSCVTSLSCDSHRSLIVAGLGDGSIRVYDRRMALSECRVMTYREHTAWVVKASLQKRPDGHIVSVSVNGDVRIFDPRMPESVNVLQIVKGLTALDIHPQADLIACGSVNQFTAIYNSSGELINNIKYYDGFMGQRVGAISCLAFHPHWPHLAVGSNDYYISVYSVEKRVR
T6 sequence (Q6R327 whole entry): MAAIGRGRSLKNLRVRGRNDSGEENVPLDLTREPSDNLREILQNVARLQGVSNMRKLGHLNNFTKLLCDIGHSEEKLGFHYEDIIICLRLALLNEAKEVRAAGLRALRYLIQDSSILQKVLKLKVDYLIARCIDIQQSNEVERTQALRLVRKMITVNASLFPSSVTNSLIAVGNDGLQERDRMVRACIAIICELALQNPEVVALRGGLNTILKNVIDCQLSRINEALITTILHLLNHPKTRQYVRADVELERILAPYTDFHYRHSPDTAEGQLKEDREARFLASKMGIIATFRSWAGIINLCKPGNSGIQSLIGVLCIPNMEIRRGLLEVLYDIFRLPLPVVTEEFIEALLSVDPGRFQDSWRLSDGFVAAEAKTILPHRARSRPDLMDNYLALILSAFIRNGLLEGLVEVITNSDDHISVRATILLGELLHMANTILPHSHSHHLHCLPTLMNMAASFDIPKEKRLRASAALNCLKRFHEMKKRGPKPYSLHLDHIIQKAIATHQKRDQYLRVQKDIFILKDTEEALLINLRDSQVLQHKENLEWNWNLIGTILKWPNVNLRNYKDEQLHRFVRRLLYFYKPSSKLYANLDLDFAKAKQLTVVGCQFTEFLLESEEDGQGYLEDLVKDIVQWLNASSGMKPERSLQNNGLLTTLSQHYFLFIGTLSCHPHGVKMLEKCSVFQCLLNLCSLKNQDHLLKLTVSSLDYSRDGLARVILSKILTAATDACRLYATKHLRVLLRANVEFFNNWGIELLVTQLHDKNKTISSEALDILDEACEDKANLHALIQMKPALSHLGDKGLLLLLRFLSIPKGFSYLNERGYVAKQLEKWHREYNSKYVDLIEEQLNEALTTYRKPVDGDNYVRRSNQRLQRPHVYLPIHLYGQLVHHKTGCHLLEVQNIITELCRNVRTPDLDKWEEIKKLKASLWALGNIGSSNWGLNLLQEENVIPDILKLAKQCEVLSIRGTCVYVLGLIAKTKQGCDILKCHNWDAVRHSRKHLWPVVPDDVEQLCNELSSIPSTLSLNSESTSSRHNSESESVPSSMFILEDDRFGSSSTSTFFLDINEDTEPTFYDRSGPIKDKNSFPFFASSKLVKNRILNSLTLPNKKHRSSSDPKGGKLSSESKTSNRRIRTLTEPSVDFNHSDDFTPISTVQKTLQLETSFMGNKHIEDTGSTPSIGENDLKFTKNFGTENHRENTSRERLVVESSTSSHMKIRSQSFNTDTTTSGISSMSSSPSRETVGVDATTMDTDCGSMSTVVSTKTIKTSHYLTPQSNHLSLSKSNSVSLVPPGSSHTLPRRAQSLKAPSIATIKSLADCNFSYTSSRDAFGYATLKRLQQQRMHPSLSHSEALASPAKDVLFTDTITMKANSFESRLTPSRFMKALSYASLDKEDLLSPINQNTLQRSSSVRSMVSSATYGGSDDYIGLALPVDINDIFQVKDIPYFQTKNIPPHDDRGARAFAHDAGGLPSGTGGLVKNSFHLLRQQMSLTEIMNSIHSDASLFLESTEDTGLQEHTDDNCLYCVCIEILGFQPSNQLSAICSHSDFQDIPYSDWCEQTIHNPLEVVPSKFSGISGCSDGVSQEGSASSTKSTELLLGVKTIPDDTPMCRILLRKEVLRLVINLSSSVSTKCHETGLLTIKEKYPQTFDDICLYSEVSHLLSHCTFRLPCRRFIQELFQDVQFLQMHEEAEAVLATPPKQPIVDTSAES
T3 sequence (Q9BPZ7 2-522 limits assumed): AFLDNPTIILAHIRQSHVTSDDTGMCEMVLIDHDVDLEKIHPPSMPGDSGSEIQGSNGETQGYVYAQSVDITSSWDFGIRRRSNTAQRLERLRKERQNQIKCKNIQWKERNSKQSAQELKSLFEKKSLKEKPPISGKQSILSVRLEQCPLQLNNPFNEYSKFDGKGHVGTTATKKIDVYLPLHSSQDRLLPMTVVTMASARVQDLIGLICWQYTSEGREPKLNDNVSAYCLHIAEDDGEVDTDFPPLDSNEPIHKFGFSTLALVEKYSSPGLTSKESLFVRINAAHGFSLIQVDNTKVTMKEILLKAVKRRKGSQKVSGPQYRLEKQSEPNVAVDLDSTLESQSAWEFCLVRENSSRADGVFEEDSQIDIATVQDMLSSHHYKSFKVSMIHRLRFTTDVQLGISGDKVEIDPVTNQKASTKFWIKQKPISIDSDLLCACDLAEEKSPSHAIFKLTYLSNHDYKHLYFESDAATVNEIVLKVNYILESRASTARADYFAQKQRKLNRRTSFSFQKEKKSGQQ
T7 sequence (Q8BKH7 2-522 limits assumed): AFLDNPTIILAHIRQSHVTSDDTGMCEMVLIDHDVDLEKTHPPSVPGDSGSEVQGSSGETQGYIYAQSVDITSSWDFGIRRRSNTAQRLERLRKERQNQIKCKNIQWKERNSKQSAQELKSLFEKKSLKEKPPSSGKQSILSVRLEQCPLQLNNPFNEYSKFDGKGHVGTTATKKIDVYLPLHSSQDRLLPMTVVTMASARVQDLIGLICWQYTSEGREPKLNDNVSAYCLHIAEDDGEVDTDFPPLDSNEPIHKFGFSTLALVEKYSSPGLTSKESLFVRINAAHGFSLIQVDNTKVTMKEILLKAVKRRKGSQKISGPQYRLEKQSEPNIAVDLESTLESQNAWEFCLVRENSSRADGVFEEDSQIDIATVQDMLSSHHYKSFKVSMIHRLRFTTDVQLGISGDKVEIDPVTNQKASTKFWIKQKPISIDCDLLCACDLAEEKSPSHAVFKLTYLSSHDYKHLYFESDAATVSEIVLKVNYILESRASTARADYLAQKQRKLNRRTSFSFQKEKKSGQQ

Q: What does the source list for `COc1ccc(-c2ccc3c(N4CCOC[C@@H]4C)nc(N4CCOC[C@@H]4C)nc3n2)cc1CO` [AZD-8055]?
A: Drug concentration that completely inhibited proliferation [1]: > 100 ng/mL; Concentration giving complete loss of 4E-BP1 Thr37/46, P70S6K Thr389 and AKT Ser473 phosphorylation, coinciding with loss of cell proliferation ([2]; Karpas-299): 100 ng/mL; Phosphorylation of AKT Thr308 ([2]; Karpas-299): remained stable; Autophagy salvage pathway (relative amounts of LC3BI/II) ([2]; Karpas-299, 100 ng/ml): activated; Ki-67 antigen (transition to G0 phase) ([2]; Karpas-299, 100 ng/ml): loss of the Ki-67 antigen; mTORC3 signaling / kinase activity in cultured cells [2]: sensitive; also recorded: fully inhibited; Autophagy salvage pathway ([3]; TEL2-expressing pre-B cells): did not induce the autophagy salvage pathway; Cell survival ([3]; TEL2-expressing pre-B cells after complete loss of mTOR signaling): died rapidly; p-Akt Ser473, p-S6 Ser235/236, p-4E-BP1 Thr37/46 phosphorylation and KI-67 antigen ([3]; TEL2-expressing pre-B cells, >100 ng/ml): loss of p-Akt^Ser473, p-S6^Ser235/236, p-4E-BP1^Thr37/46 phosphorylation and loss of the KI-67 antigen; Proliferation of Karpas-299 cells (Karpas-299 cells): completely inhibited proliferation

Q: With `COc1cccc2cc(-c3nc([C@H]4CC[C@H](C(=O)O)CC4)n4ncnc(N)c34)[nH]c12` [OSI-27] as the molecule, how does the “4E-BP1 phosphorylation (kinase activity) by mTOR IP” value (mTOR) read?
A: reduced 4E-BP1 phosphorylation to levels comparable with IPs using control IgG

Q: And the “mTORC3 signaling / kinase activity in cultured cells” value [2]?
A: sensitive; also recorded: fully inhibited

Q: What about the “Proliferation of Karpas-299 cells” value (Karpas-299 cells) of the same molecule?
A: completely inhibited proliferation

Q: And the “4E-BP1 phosphorylation (kinase activity) by TEL2 IP” value (mTORC3)?
A: reduced 4E-BP1 phosphorylation to levels comparable with IPs using control IgG

Q: What does the source list for `CO[C@H]1C[C@@H]2CC[C@@H](C)[C@@](O)(O2)C(=O)C(=O)N2CCCC[C@H]2C(=O)O[C@H]([C@H](C)C[C@@H]2CC[C@@H](O)[C@H](OC)C2)CC(=O)[C@H](C)/C=C(\C)[C@@H](O)[C@@H](OC)C(=O)[C@H](C)C[C@H](C)/C=C/C=C/C=C/1C` [Rapamycin]?
A: Drug concentration at which cells stopped proliferating [4]: > 0.3 ng/mL; Concentration causing marked reduction of p-AKT Ser473 phosphorylation ([2]; Karpas-299): > 0.3 ng/mL

B1: TEL2 (translocation Ets leukemia 2 / Ets variant gene 7) (other)
chain: MQEGELAISPISPVAAMPPLGTHVQARCEAQINLLGEGGICKLPGRLRIQPALWSREDVLHWLRWAEQEYSLPCTAEHGFEMNGRALCILTKDDFRHRAPSSGDVLYELLQYIKTQRRALVCGPFFGGIFRLKTPTQHSPVPPEEVTGPSQMDTRRGHLLQPPDPGLTSNFGHLDDPGLARWTPGKEESLNLCHCAELGCRTQGVCSFPAMPQAPIDGRIADCRLLWDYVYQLLLDTRYEPYIKWEDKDAKIFRVVDPNGLARLWGNHKNRVNMTYEKMSRALRHYYKLNIIKKEPGQKLLFRFLKTPGKMVQDKHSHLEPLESQEQDRIEFKDKRPEISP
notes: Endogenous in the human cell lines and xenografts; Exogenous (MSCV-TEL2-IRES-GFP) in mouse Arf-/- pre-B cells; Purified from transfected HEK 293T cells for the in vitro association; also called TEL2/ETV7; ETV7
Q: Does B1 bind (SIN1 (human cell lines))?
A: no binding

Q: Does B1 bind [5]?
A: no binding

Q: Does B1 bind [6]?
A: no binding

Q: Does B1 bind [7]?
A: no binding

Q: Does B1 bind [8]?
A: no binding

Q: Does B1 bind [9]?
A: no binding
